Each structure is given as a SMILES string.

The subject of test [1] is TNFα production in human monocytic cell line THP-1. Briefly: Inhibition of LPS-induced TNFα production in THP-1 cells. In kind it is cell-based. The following applies: LPS 10 μg/ml, 5 h, TNFα ELISA. As for the experimental part: The activity of compounds in inhibiting TNFα production was measured in a cellular assay using the human monocytic cell line THP-1. For this purpose, 2×10^5 cells/well were plated in tissue-culture treated round-bottom 96-well plates in RPMI (containing 10% FCS, L-Gln 2 mM, Hepes buffer 10 mM, sodium pyruvate 1 mM, glucose 4.5 gr/L, HNaCO3 1.5 g/L and beta-mercaptoethanol 50 μM), together with compounds at the desired test concentration and LPS (Sigma, L2630) at a final 10 μg/ml concentration. Compounds were resuspended in 100% DMSO at a concentration of 1 mM and titrated thereof in 10× dilutions in medium. Controls included stimulated cells alone and stimulated cells treated with the highest concentration of compound vehicle (1% DMSO). Cells were incubated for 5 h at 37° C. in a 5% CO2 atmosphere. Cell supernatant was recovered by centrifugation and diluted 5-fold prior to testing in a standard human TNFα ELISA (RnD systems).
Data were analyzed by non-linear regression (Hill equation) to generate a dose-response curve. The calculated IC50 value is the concentration of the test compound that caused a 50% decrease in the maximal TNFα production.

Test [2] addresses T1, human p38alfa (SAPKa) enzyme (Homo sapiens, UniProt Q16539).
T1 construct: purchased University of Dundee
Briefly: p38alpha enzymatic inhibition assay (FRET, ATF2 substrate). The format is biochemical. The following applies: 1 h pre-incubation, ATP 60 μM, ATF2 0.62 μM, 25° C., read-out: p38α IC50. The protocol: Enzymatic activity assay was performed in 96-well microtiter plates (Corning, catalog number # 3686) using a total volume of 50 μl of an assay buffer composed of 50 mM HEPES pH 7.5, 10 mM MgCl2, 1.75 mM Na3VO4.
Various concentrations of the test compound or vehicle controls were pre-incubated for one hour with 0.055 μg/ml of the human p38alfa (SAPKa) enzyme (obtained from University of Dundee). […] Addition of the detection reagents, streptavidin-XL665 and anti-phosphoresidue antibody coupled to Europium cryptate, caused the juxtaposition of the cryptate and the XL665 fluorophore, resulting in fluorescence energy transfer (FRET). The FRET intensity depends on the amount of bounded cryptate antibody, which is proportional to the extent of substrate phosphorylation. FRET intensity was measured using Victor 2V spectrofluorometer. Data were analyzed by non-linear regression (Hill equation) to generate a dose-response curve. The calculated IC50 value is the concentration of the test compound that caused a 50% decrease in the maximal FRET intensity.

T1 sequence (Q16539 whole entry): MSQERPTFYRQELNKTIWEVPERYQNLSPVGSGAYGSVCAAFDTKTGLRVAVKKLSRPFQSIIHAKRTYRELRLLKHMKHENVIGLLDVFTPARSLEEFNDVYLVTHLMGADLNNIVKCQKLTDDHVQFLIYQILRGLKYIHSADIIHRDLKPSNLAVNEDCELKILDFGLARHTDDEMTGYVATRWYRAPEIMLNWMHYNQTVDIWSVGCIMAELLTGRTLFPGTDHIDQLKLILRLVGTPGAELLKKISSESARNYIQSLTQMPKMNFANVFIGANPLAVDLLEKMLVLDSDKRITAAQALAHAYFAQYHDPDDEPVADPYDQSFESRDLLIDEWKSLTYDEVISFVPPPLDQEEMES

Take `Nc1c(C(=O)c2ccc(F)cc2F)ccnc1-c1ccccc1Cl` [Example 25, [3-Amino-2-(2-chlorophenyl)pyridin-4-yl](2,4-difluorophenyl)methanone]: the IC50 (in general, the concentration that inhibits the measured activity by half) in test [1] was 130 nM; in test [2] it was 251 nM. In test [1], `Nc1c(C(=O)c2ccc(F)cc2F)cc[n+]([O-])c1-c1ccccc1Cl` [Example 26, [3-Amino-2-(2-chlorophenyl)-1-oxidopyridin-4-yl](2,4-difluorophenyl)methanone] yielded an IC50 of 76 nM.

`Nc1c(C(=O)c2ccc(F)cc2F)cc[n+]([O-])c1-c1c(Cl)cccc1Cl` [Example 32, [3-Amino-2-(2,6-dichlorophenyl)-1-oxidopyridin-4-yl](2,4-difluorophenyl)methanone] showed an IC50 in test [1] of 19.4 nM. Same read-out and setting: in the case of `Cc1cccc(C)c1-c1c(N)c(C(=O)c2ccc(F)cc2F)cc[n+]1[O-]` [Example 36, [3-Amino-2-(2,6-dimethylphenyl)-1-oxidopyridin-4-yl](2,4-difluorophenyl)methanone] it was 33 nM. Turning to `Cc1cc(O)ccc1-c1nccc(C(=O)c2ccc(F)cc2F)c1N` [Example 47, [3-Amino-2-(4-hydroxy-2-methylphenyl)pyridin-4-yl](2,4-difluorophenyl)methanone], the IC50 was found to be 402 nM in test [1] and 277 nM in test [2]. Take `Cc1cc(O)ccc1-c1c(N)c(C(=O)c2ccc(F)cc2F)cc[n+]1[O-]` [Example 48, [3-Amino-2-(4-hydroxy-2-methylphenyl)-1-oxidopyridin-4-yl](2,4-difluorophenyl)methanone]: in test [1], the IC50 is 84 nM. Take `Nc1c(C(=O)c2ccc(F)cc2F)ccnc1-c1cccc2c1OCO2` [Example 79, [3-Amino-2-(1,3-benzodioxol-4-yl)pyridin-4-yl](2,4-difluorophenyl)methanone]: the figures for the IC50 in test [1] and in test [2] were 53 nM and 103 nM, respectively. As to `Cc1ccccc1-c1c(N)c(C(=O)c2ccccc2Cl)cc[n+]1[O-]` [Example 82, [3-Amino-2-(2-methylphenyl)-1-oxidopyridin-4-yl](2-chlorophenyl)methanone], the results for the IC50 in test [1] and in test [2] were 118 nM and 31 nM, respectively. On to `Cc1cccc(C(=O)c2cc[n+]([O-])c(-c3ccccc3C)c2N)c1` [Example 92, [3-Amino-2-(2-methylphenyl)-1-oxidopyridin-4-yl](3-methylphenyl)methanone], for which the IC50 in test [1] was 54 nM; in test [2], 34 nM. On to `Cc1cccc(C(=O)c2cc[n+]([O-])c(-c3c(F)cccc3F)c2N)c1` [Example 98, [3-Amino-2-(2,6-difluorophenyl)-1-oxidopyridin-4-yl](3-methylphenyl)methanone], for which the IC50 in test [1] turned out to be 48 nM; in test [2], 20 nM. In the same order, the values of `Nc1c(C(=O)c2cccc(F)c2)ccnc1-c1cccc2c1OCO2` [Example 109, [3-Amino-2-(1,3-benzodioxol-4-yl)pyridin-4-yl](3-fluorophenyl)methanone] are 349 nM and 359 nM. In the same order, the values of `COc1ccccc1C(=O)c1cc[n+]([O-])c(-c2c(F)cccc2F)c1N` [Example 118, [3-Amino-2-(2,6-difluorophenyl)-1-oxidopyridin-4-yl](2-methoxyphenyl)methanone] are 140 nM and 86 nM. In the same order, the values of `COc1ccccc1C(=O)c1cc[n+]([O-])c(-c2c(C)cccc2C)c1N` [Example 120, [3-Amino-2-(2,6-dimethylphenyl)-1-oxidopyridin-4-yl](2-methoxyphenyl)metha-none] are 98 nM and 146 nM.

(Values after US20110098298A1, “New Pyridin-3-Amine Derivatives” (priority 2006, published 2011).)
